Results from patent US7101707B2, “Secondary sprouting for isolation and expansion of endothelial sprout cells and endothelial precursor cells from a mixed population and for screening substances” (Cedars-Sinai Medical Center, priority 2002, dated 2006).
“Also recorded” adds a separate entry of the source. Numbered stars: 1 amine (or outer) side, 2 acyl side, 3 side chain; on linkers, the order of the positions; unused ones are H or OH. Bridge positions count the residues as written; N and C are the ends. Square brackets hold non-standard residues; d marks the D form. Peptide text beside a SMILES is read from it. I, II: the chains in the order shown. Actinocin(9to1) = Cc1c2oc3c(C)ccc(C(=O)[*:1])c3nc-2c(C(=O)[*:2])c(N)c1=O; NMeV = CN[C@H](C(=O)O)C(C)C; Sar = CNCC(=O)O

Columns and labels:
[1] = test system: REC; test: Angiogenic assays taken together (proliferation, secondary sprouting, migration, tube formation); assay type: cell-based, bovine; details: all assays
Experimental: Treatment of REC cultures. Duplicate REC cultures on plastic (for migration) or MATRIGEL™ biological cell culture substrate with the same number of cells per dish are treated with previously established working concentrations of signaling inhibitors and/or select growth factor combinations. Treatments begin at the time of seeding the cells and medium is changed every other day. Single growth factors are used as negative controls since their modulation of TN-C effects was minimal. Working growth factor concentrations were as follows: VEGF, 1–50 ng/mL depending on the assay; PlGF, 100 ng/mL; FGF-2, 10–100 ng/mL; IGF-I, 25–100 ng/mL; PDGF-BB, 10–100 ng/mL. When used as combinations, each growth factor was supplied at 10 ng/mL for optimum synergy. The already tested inhibitors of signaling molecules (Sigma, Calbiochem, BIOMOL) were used at the following optimized doses: protein kinase A (inhibitor: H89 [25 μM]), PKC (inhibitor: calphostin C [2.5 μM]), PKC-β (inhibitor: LY379196 [50 nM]), Ca^2+/calmodulin kinase II (inhibitor: KN-93 [0.5 μM]), CK1 (inhibitor: CKI-7 [50 μM]), MEK-ERK (inhibitor: PD98059 [10 μM]), p38 MAP kinase (inhibitor: SB202190 [10 μM]), PI3 kinase (inhibitor: wortmannin [100 nM]), CK2 (inhibitors: emodin [20–25 μM] and DRB [20–25 μM]), CK2 and other kinases (inhibitor: quercetin [50 μM]); and a negative control for kinase inhibition (SB202474 [10 μM]). […]

[2] = test system: bovine REC; test: REC proliferation assay (MTS); assay type: cell-based; details: for effect of kinase inhibitors on proliferation: basal and growth factor-stimulated (CK2 blockers), H-7 preliminary, not shown
Experimental: (§1) REC proliferation and survival assays. 96-well plates were coated with various amounts of TN-C or vehicle. 5×10^3 cells were added to each triplicate well in low-serum REC medium with various amounts of growth factors (0.5% FCS incomplete BREC medium containing 10 ng/ml of human IGF-I, FGF-2, VEGF, PlGF and PDGF-BB [R&D Systems Inc., Minneapolis, Minn.]). Cell numbers were determined on days 4–7 using the MTS cell proliferation assay (Promega Corp.) according to manufacturer's instructions. Survival was measured in the same way using high glucose (30 mM) or chemical hypoxia (2 mM sodium azide) or serum-free medium to induce cell death. Cell numbers were determined on days 4–7 using MTS assay (Promega).

[3] = test system: bovine REC; test: Secondary sprouting assay on reconstituted basement membrane matrix (MTS); assay type: cell-based; details: for effect of kinase inhibitors on secondary sprouting: basal and growth factor-stimulated (CK2 blockers), H-7 preliminary, not shown
Experimental: (§2) In vitro MATRIGEL™ biological cell culture substrate assay of capillary-like tube formation and secondary sprouting. […] Briefly, 50 μL of reconstituted basement membrane matrix from mouse EHS tumor (BD or GFR MATRIGEL™ biological cell culture substrate; Becton Dickinson Labware, Bedford, Mass.) were dispensed with frozen pipettes into each well of a previously frozen, sterile 96-well plate sitting on wet ice and allowed to solidify for 1 hr at room temperature or 37° C. Approximately 5×10^4 or 7.5×10^4 REC in a 100 μL volume were seeded into each triplicate well. Human recombinant or purified growth factors were added to a final concentration of 10 ng/mL (or as noted) in 0.5% FCS incomplete BREC medium. Capillary-like tube structures formed by REC on reconstituted basement membrane matrix were photographed at various intervals ranging from 12–72 hr; pictures were scanned, digitized and analyzed using image-processing software.
For the secondary sprouting assay, cells on reconstituted basement membrane matrix were seeded as above but incubated in 0.5% FCS incomplete BREC medium without any growth factors for 3 days, allowing for tube formation and collapse. On day 3, human recombinant or purified growth factors were added to a final concentration of 10 ng/mL (or as noted) in low-serum incomplete BREC medium and incubated for another 5–6 days. Digital photographs were obtained with a Kodak MDS 100 camera attached to a Leitz DM IL inverted microscope. Digitized images obtained with a Kodak MDS 100 video camera were stored on compact discs and quantified with NIH Image 1.62 software. The number of living cells in the sprouting colonies were determined using the MTS cell proliferation assay.
A good correlation was observed between the spherical volume and the number of live cells in secondary sprouting colonies (not shown). Since the latter is an easy parameter to test by using the MTS assay, it was adopted as a faster method for studying the effect of various agents on secondary sprouting.

[4] = test system: bovine REC; test: Migration (wound healing) assay; assay type: cell-based; details: for effect of kinase inhibitors on migration: basal and growth factor-stimulated (CK2 blockers), H-7 preliminary, not shown; for effect of growth factors on REC migration: growth factors 10 ng/mL each
Experimental: Migration assay. REC migration rates were examined in a wound healing assay, where cells migrate over time into the scrape wound in a monolayer. Briefly, cells were seeded in 24-well plates and allowed to reach confluence in growth medium. Prior to growth factor treatment, cells were serum-starved overnight in incomplete BREC medium with 0.5% FCS. All monolayers within an experiment were wounded with a single sterile wood stick of constant diameter, to ensure uniformity in the wound areas among different treatments. Wounded monolayers were then rinsed with low-serum medium to remove detached cells and treated with various combinations of human growth factors at 10 ng/mL each. On day 7, cells were rinsed 3× with PBS and fixed with methanol for 15 min, rehydrated with dH2O and stained with Meyer's hematoxylin for 5 min, followed by destaining with dH2O. All wells were photographed with a 4× or 10× objective using a Kodak MDS 100 digital camera attached to a Leitz DM IL inverted microscope. The original wound area was measured at 0 hr and used as a baseline for comparison to the treated wells at the conclusion of the experiment. The number of cells migrated into the wound was determined. Migrating cell counting was automated using the AAB (Advanced American Biotechnology, Fullerton, Calif.) software. Data were calculated and statistically analyzed (Spirin K S et al., Basement membrane and growth factor gene expression in normal and diabetic human retinas, Curr. Eye Res. 18:490–499 [1999]) relative to control cultures that received the same concentrations of bovine serum albumin instead of growth factors and/or inhibitor, compared to vehicle instead of inhibitor after wounding. Inhibitors were added 30 min before growth factors.

[5] = test system: REC; test: Capillary-like tube formation on MATRIGEL; assay type: cell-based, bovine; details: for effect of kinase inhibitors on tube formation: basal and growth factor-stimulated (CK2 blockers), H-7 preliminary, not shown
Experimental: as §2

[6] = test system: bovine REC; test: REC survival assay (MTS, low serum); assay type: cell-based; details: for effect of growth factors on REC survival: growth factors 10 ng/mL each
Experimental: as §1

[7] = test system: human REC; test: Gene array analysis of growth factor action on normal and DR REC; assay type: cell-based; details: 10 ng/mL, 7 days, 0.5% serum
Experimental: Normal REC and DR REC gene expression patterns were compared by gene array analysis. Normal, diabetic and DR autopsy human eyes are obtained from National Disease Research Interchange (NDRI), within 24 hours after death. These eyes are used to isolate REC for culture as described hereinabove. Cultures can be used up to the fourth passage, and viable cultures can be cryogenically stored. Cultures of normal, diabetic and DR REC are established from autopsy human eyes and routinely checked for purity using von Willebrand factor immunostaining as described hereinabove. Cells are cultured in 50% F-12, 50% low-glucose DMEM with antibiotics/antimycotics (GIBCO/BRL), insulin-transferrin-selenite, ECGS (Sigma Chemical Co.), and 20% FCS. Statistical analysis of results is done with GraphPad Prism software (GraphPad Software).
In experiments, normal, diabetic, and DR REC were grown for seven days with or without 10 ng/ml VEGF, or 10 ng/mL IGF-I, or 10 ng/mL each VEGF and IGF-I, in medium with 0.5% serum. Long-term rather than short-term treatment was chosen because diabetes develops over a considerable time period. RNA isolated from REC was reverse-transcribed using Smart™ cDNA synthesis method (Clontech), to produce full-length cDNA. Two normal cases or two DR cases were pooled together. This cDNA was PCR-amplified with a short number of cycles and used as a probe for Clontech Atlas Human 1.2 1,200-gene arrays, according to the manufacturer's instructions. This technique had previously been refined and verified by Northern analysis and fully correlated gene array data with protein expression. (Spirin K S et al., Analysis of gene expression in human bullous keratopathy corneas containing limiting amounts of RNA, Invest. Ophthalmol. Vis. Sci. 40:3108–3115 [1999]). Samples were normalized to several housekeeping genes and the analysis was done with available AtlasImage 2.0 software (Clontech). Signal ratio >2 between samples was considered significant as per manufacturer's recommendation.

[8] = test system: retinal neovascularization; test: Oxygen-induced retinopathy in newborn mice; assay type: in vivo, mouse

Compound: Cc1c2oc3c(C)ccc(C(=O)N[C@@H]4C(=O)N[C@H](C(C)C)C(=O)N5CCC[C@H]5C(=O)N(C)CC(=O)N(C)[C@@H](C(C)C)C(=O)O[C@@H]4C)c3nc-2c(C(=O)N[C@@H]2C(=O)N[C@H](C(C)C)C(=O)N3CCC[C@H]3C(=O)N(C)CC(=O)N(C)[C@@H](C(C)C)C(=O)O[C@@H]2C)c(N)c1=O [Actinomycin D] (I: T[dV]P[Sar][NMeV] / II: T[dV]P[Sar][NMeV]; ester I:1-I:C, II:1-II:C; linker I:N-II:N via Actinocin(9to1))
- effect of inhibitors in angiogenic assays [1]: only minor changes

Compound: CC1CNCCN1S(=O)(=O)c1cccc2cnccc12 (centres unmarked) [H-7]
- effect of kinase inhibitors on proliferation [2]: inhibited
- effect of kinase inhibitors on secondary sprouting [3]: inhibited
- effect of kinase inhibitors on migration [4]: inhibited
- effect of kinase inhibitors on tube formation [5]: stabilized REC tubes

Compound: FGF-2: fibroblast growth factor (FGF)-2, angiogenic growth factor
- morphology of sprouting colonies after growth factor treatment ([3]; 10 ng/mL): longer and sparser sprouts
- effect of growth factors on secondary sprouting (live cell number) ([3]; 10 ng/mL, 0.5% FCS medium): potently stimulated; also recorded: pro-angiogenic; also recorded: dramatic increase; also recorded: greatly enhanced
- stimulation of secondary sprouting (fold, on average) ([3]; growth factors, live cells by MTS): four-fold
- effect of growth factors on REC migration [4]: little or no effect
- effect of growth factors on tube formation ([5]; growth factors 10 ng/mL each): little or no effect

Compound: IGF-I: insulin-like growth factor (IGF)-I
- effect of growth factors on REC survival [6]: the opposite
- effect of growth factors on REC migration [4]: the opposite
- expression of pro-apoptotic genes [7]: decrease

Compound: OC[C@H]1O[C@@H](n2cnc3cc(Cl)c(Cl)cc32)[C@H](O)[C@@H]1O [DRB, 5,6-dichloro-1-β-D-ribofuranosylbenzimidazole]
- effect of kinase inhibitors on proliferation [2]: potently inhibited
- number of live cells, proliferation ([2]; bovine REC, 10% serum, various concentrations, day 6, MTS): significantly lowers cell number
- number of live cells, survival ([6]; bovine REC, 0.5% serum, various concentrations, day 6, MTS): significantly lowers cell number
- effect of kinase inhibitors on secondary sprouting [3]: potently inhibited
- concentration from which live cell number in secondary sprouting is significantly decreased ([3]; bovine REC on MATRIGEL, 0.5% serum, day 9, MTS): ≥ 25 µM
- effect of kinase inhibitors on migration [4]: potently inhibited
- effect on growth factor-mediated cell migration ([4]; four GFs 10 ng/ml each, 7 days, 0.5% serum, emodin 10 μM, DRB 15 μM): significant inhibitory effect
- effect of kinase inhibitors on tube formation [5]: potently inhibited
- diminution of retinal neovascularization (preretinal nuclei count) ([8]; two intraperitoneal injections daily, day 11 to 17 after birth, emodin 20–30 μg/g, vs untreated or vehicle): about 60%

Compound: VEGF
- effect of growth factors on REC survival [6]: little effect
- effect of growth factors on REC migration [4]: significantly enhanced
- expression of pro-apoptotic genes [7]: did not display an increase
- expression of proliferation-related genes [7]: upregulated
- expression of various phosphatases [7]: downregulated

Compound: O=c1c(O)c(-c2ccc(O)c(O)c2)oc2cc(O)cc(O)c12 [quercetin]
- effect of kinase inhibitors on proliferation [2]: potently inhibited
- effect of kinase inhibitors on secondary sprouting [3]: potently inhibited
- effect of kinase inhibitors on migration [4]: potently inhibited
- effect of kinase inhibitors on tube formation [5]: potently inhibited
- effect on retinal neovascularization ([8]; intramuscular injections, data not shown): substantial effect
